Key:
interstitial cystitis = test: Interstitial cystitis patient (Example 8); assay type: in vivo, human; conditions: 100 mg per day of macrodantin and 20 mg per day of feldene, earlier treatment
Protocol: Additionally, they had taken 200 mg TID of Elmiron to reduce the inflammation in the bladder lining. […] In order to sleep they took Prosed/DS, Ultram, Hydroxyzine HCl, Cardura, Amitriptyline. Sometimes all were taken at some time during the day or night. […] This patient was supplied with the mixed molecular weight preparation of sodium hyaluronate as described in EXAMPLE 1. They were also supplied with a topical preparation containing 1% wt/vol. Sodium hyaluronate at a molecular weight of <30,000 combined with 1% Oil of Wintergreen, 0.5% Spearmint Oil and 0.2% Peppermint Oil. They took 10 mg of the oral preparation 4 times per day. The last dose was taken before going to bed. Additionally, at bedtime, they rubbed their lower abdomen (over the bladder) with the topical preparation.

anti-coagulant activity = conditions: cited from earlier work
[1] = test system: Attention Deficit Hyperactivity Disorder (ADHD) complicated by Turret's Syndrome; test: Treatment of a child with ADHD complicated by Turret's Syndrome (Example 2); assay type: in vivo, human; conditions: earlier treatment, discontinued 1.5 year before
Protocol: This treatment was not complicated by concurrent treatment with drugs such as Ritalin as their parents were adverse to using this medication. Therefore, any response observed was related to the use of the complex carbohydrates of the present invention. They took 10 mg in the morning and 10 mg in the evening, using the solution as a mouthwash (holding it in their mouth for about 10 to 20 seconds and then swallowing). […] However, within 15 minutes of their receiving the missing dose, they became calm and returned to normal. This child has remained totally under control for 6 months. This had never been observed before, even when they were taking Ritalin. […] It has been concluded that a disease typically thought to be related to a nervous disorder or to allergies was treatable by the complex carbohydrates of the present invention.

[2] = test system: attention deficit disorder (ADD); test: Adult with attention deficit disorder, daily response (Example 5, FIG. 1); assay type: in vivo, human; conditions: earlier treatment
Excerpt: The subject adult was a person who had suffered all their life with attention deficit disorder (ADD).
They never knew what their problem was until recently when they were diagnosed. They described their childhood as unfocused and explained that they felt as though they were in a constant mental fog—unable to think clearly, or for that matter, unable to focus on a thought at all. […] Exposure to only a few minutes in a moldy room caused this individual to become dazed, unable to think, focus or even stay awake. They had only been able to do menial jobs. They spent most of their time staring out the window with no thoughts in their mind and, even if they tried, could not focus on a thought or task. They described themself as believing all their life that they were just stupid and unable to learn. They had been to multiple physicians and psychiatrists seeking treatment with no success. They had taken Ritalin with little relief. It allowed them to function partially but they were always tired and unable to focus on anything but the simplest of tasks. They agreed to take the oral sodium hyaluronate product and their family would report how they reacted. […]
FIG. 1 plots the response of this patient while taking the compositions of the present invention. […] If there were no significant negative or positive responses during a day, the reaction rate was recorded as 0. […]

ADHD = test: child with ADHD, behaviour scores (Example 7, FIG. 2); assay type: in vivo, human; conditions: prescribed daily, earlier treatment
Excerpt: The subject child was a person who has suffered with ADHD all their life. […] Additionally, their behavior was such that they could not socialize with other children or with adults. When in contact with other children they were unable to play, often became angered and caused physical harm to others. They had been under treatment by several physicians, psychologists and allergists all their life but none were able to help their condition. The allergists determined that they had allergies to most all foods, dust, molds, soaps and just about everything in their environment. At one time they were prescribed Ritalin daily. […]
This child attended a special school in which their Teachers reported their daily activity to their parents so that they could try to monitor their eating habits. […] Their response was monitored by using the numerical score provided by their teachers and averaging it with a numerical score of their behavior at home provided by their parents. […] Their parents have commented that they have awakened in the morning and is happy, cheerful and cooperative in getting ready for school. […] If their behavior was belligerent, bossy, angry or non-cooperative they were scored as a −40 for the day. If their reactions to foods or environmental stimuli produced such a response it was recorded as a −40. If they responded as a normal person, the score was recorded as 0. […]

joint pain = conditions: oral doses between 1000 and 3000 mg/day (>15 mg/Kg); cited from earlier work
polymyositis = test: Polymyositis in the same patient (Example 4); assay type: in vivo, human; conditions: 50 mg daily, before hyaluronate
Protocol: A person suffering from colon cancer had been unable to tolerate their colostomy and demanded that their surgeon remove the colostomy and reconnect their colon. They refused chemotherapy. They were given a formulation of 1% sodium hyaluronate (Collaborative Laboratories, Inc) which was prepared with a mixture of molecular weights of hyaluronate (as described in EXAMPLE 1). When they began taking the hyaluronate preparation, their CEA was 70.1. They have taken the hyaluronate at a dose of 10 mg three times per day mucosally and after 6 months of treatment their CEA has dropped to 4.1. They have taken no other treatments. This patient had also suffered from polymyositis for approximately 15 years. For this condition they were taking 50 mg of Prednisone daily with little relief. […] After 6 months of treatment with hyaluronate, they have been able to reduce their Prednisone to 5 mg every other day. […] The polymyositis that was successfully treated in this example was thought to represent treatment of a disease associated with the adhesion cascade or autoimmune disease.

lick granulomas = test: Lick granuloma of a Labrador retriever (Example 12); assay type: in vivo, dog; conditions: cortisone injections and hydrocortisone creams
Protocol: An eleven year old Labrador retriever had suffered from lick granulomas for at least 3 years. […] This dog's granuloma was located on the left hind leg above the pasturn. The swelling around the leg measured 8 inches in diameter and the open wound measured 4×3 inches. […] This dog was injected with 10 mg of sodium hyaluronate having a molecular weight ranging from 30,000 to 400,000 (1.0 mL intramuscularly—equivalent to 10 mg). The open wound began to heal. This injection was followed up with topical application of a low molecular weight hyaluronic acid prepared by making a 1% (wt/vol) solution of hyaluronic acid (Medex Ltd) containing 1% Wintergreen Oil (Loranne Oil), 1% Spearmint Oil (Loranne Oil) and 0.5% Peppermint Oil (Loranne Oil). The topical formulation was applied at least two times per day. […] The dog has not licked this area since treatment began. Therefore, the complex carbohydrates of the present invention are able to successfully treat lick granulomas (a previously untreatable condition of dogs) and eliminate the cause of the licking.

chronic eczema = test: Chronic eczema with yeast infection (Example 14); parameters: species or system human; conditions: in vivo
Excerpt: A person suffered from chronic eczema—scaly and red areas on their neck and arms. They had also been diagnosed with a yeast infection associated with the eczema. […] They initially used a topical preparation prepared according to this invention. This contained a mixture of low and high molecular weight sodium hyaluronate (prepared as in EXAMPLE 1) mixed with 1% Wintergreen Oil, 1% Spearmint Oil, and 0.5% Peppermint Oil. They applied it topically for four weeks. […] However, there was still itching and redness. They then began to orally take the 1% mixture, of low and high molecular weight sodium hyaluronate described in example 1. They reported that within 2 weeks all signs of the eczema had disappeared, the itching was gone and they felt better than they had felt for years. The oral dose required was 5 mg TID for this 91 pound person. Therefore, the dose was […].

With `CN1C(C(=O)Nc2ccccn2)=C(O)c2ccccc2S1(=O)=O` [feldene] the side effects (interstitial cystitis) was “severe side effects”.

For low molecular weight heparin, the anti-coagulant activity (anti-coagulant activity) is listed as “free of anti-coagulant activity”.

In the case of `COC(=O)C(c1ccccc1)C1CCCCN1` (centres unmarked) [Ritalin], the side effects [1] is reported as “problems with side effects”, the “relief of ADD” value [2] is reported as “little relief” and the “reaction while taking the drug” value (ADHD) is reported as “suffered hallucinations and became even more uncontrollable”.

In the case of chondroitin sulfate, the “time until relief from joint pain” value (joint pain) is given as 6-9 months.

With `O=C1CN(/N=C/c2ccc([N+](=O)[O-])o2)C(=O)N1` [macrodantin] the side effects (interstitial cystitis) was “severe side effects”.

In the case of `C[C@]12C=CC(=O)C=C1CC[C@@H]1[C@@H]2C(=O)C[C@@]2(C)[C@H]1CC[C@]2(O)C(=O)CO` [Prednisone], the relief of polymyositis (polymyositis) is reported as “little relief”.

For `C[C@]12CCC(=O)C=C1CC[C@@H]1[C@@H]2C(=O)C[C@@]2(C)[C@H]1CC[C@]2(O)C(=O)CO` [cortisone], the “success of earlier treatment of lick granuloma” value (lick granulomas) was “little success” and the “effect of earlier treatment on eczema” value (chronic eczema) was “no significant effect”.

With `C[C@]12CCC(=O)C=C1CC[C@@H]1[C@@H]2[C@@H](O)C[C@@]2(C)[C@H]1CC[C@]2(O)C(=O)CO` [hydrocortisone] the “success of earlier treatment of lick granuloma” value (lick granulomas) was “little success”.

Reference: patent US8367642B2, “Methods of preventing or treating diseases and conditions using complex carbohydrates” (Dermal Research Laboratories, Inc., priority 2000, dated 2013)
